According to patent US6627634B2, “Bicyclic heterocycles, pharmaceutical compositions containing them, their use, and processes for preparing them” (Boehringer Ingelheim Pharma KG, priority 2000, dated 2003):

Columns and labels:
[1] = molecular target: T1, human EGF-R (Homo sapiens, UniProt P00533); assay: Inhibition of EGF-dependent proliferation of F/L-HERc cells; type: cell-based; conditions: F/L-HERc cells (murine IL-3-dependent line expressing human EGF-R), stimulated with EGF 20 ng/ml, 48 hours, Cell Titer 96 AQueous assay
T1 construct: expressed in transfected cells; host or cells: F/L-HERc cells (murine IL-3-dependent FDC-P1 line transduced with retroviral vector LXSN carrying human EGF-R cDNA; packaging line GP+E86)
From the text: A cell line of murine origin dependent on interleukin-3-(IL-3) which was genetically modified to express functional human EGF-R was used here. The proliferation of these cells known as F/L-HERc can therefore be stimulated either by murine IL-3 or by EGF (cf. T. von Rüiden et al. in EMBO J. 7, 2749-2756 (1988) and J. H. Pierce et al. in Science 239, 628-631 (1988)).
The starting material used for the F/L-HERc cells was the cell line FDC-P1, the production of which has been described by T. M. Dexter et al., J. Exp. Med. 152 1036-1047 (1980). Alternatively, however, other growth-factor-dependent cells may also be used (cf., e.g., J. H. Pierce et al., Science 239, 628-631 (1988); H. Shibuya et al., Cell 70, 57-67 (1992); and W. S. Alexander et al., EMBO J. 10, 3683-3691 (1991)). For expressing the human EGF-R cDNA (cf. A. Ullrich et al., Nature 309, 418-425 (1984)) recombinant retroviruses were used as described by T. von Rüiden et al., EMBO J. 7, 2749-2756 (1988), except that the retroviral vector LXSN (cf. A. D. Miller et al., BioTechniques 7, 980-990 (1989)) was used for the expression of the EGF-R cDNA and the line GP+E86 (cf. D. Markowitz et al., J. Virol. 62, 1120-1124 (1988)) was used as the packaging cell.
F/L-HERc cells were cultivated in RPMI/1640 medium (BioWhittaker), supplemented with 10% fetal calf serum (FCS, Boehringer Mannheim), 2 mM glutamine (BioWhittaker), standard antibiotics and 20 ng/ml of human EGF (Promega), at 37° C. and 5% CO2. In order to investigate the inhibitory activity of the compounds according to the invention, 1.5×10^4 cells per well were cultivated in triplicate in 96-well dishes in the above medium (200 μl), the cell proliferation being stimulated with either EGF (20 ng/ml) or murine IL-3. The IL-3 used was obtained from culture supernatants of the cell line X63/0 mIL-3 (cf. H. Karasuyama et al., Eur. J. Immunol. 18, 97-104 (1988)). The compounds according to the invention were dissolved in 100% dimethylsulfoxide (DMSO) and added to the cultures in various dilutions, the maximum DMSO concentration being 1%. The cultures were incubated for 48 hours at 37° C.
In order to determine the inhibitory activity of the compounds according to the invention the relative cell number was measured in O.D. units using the Cell Titer 96™ AQueous Non-Radioactive Cell Proliferation Assay (Promega). The relative cell number was calculated as a percentage of the control (F/LHERc cells without inhibitor) and the concentration of active substance which inhibits the proliferation of the cells by 50% (IC50) was derived therefrom.

T1 sequence (P00533 25-1210): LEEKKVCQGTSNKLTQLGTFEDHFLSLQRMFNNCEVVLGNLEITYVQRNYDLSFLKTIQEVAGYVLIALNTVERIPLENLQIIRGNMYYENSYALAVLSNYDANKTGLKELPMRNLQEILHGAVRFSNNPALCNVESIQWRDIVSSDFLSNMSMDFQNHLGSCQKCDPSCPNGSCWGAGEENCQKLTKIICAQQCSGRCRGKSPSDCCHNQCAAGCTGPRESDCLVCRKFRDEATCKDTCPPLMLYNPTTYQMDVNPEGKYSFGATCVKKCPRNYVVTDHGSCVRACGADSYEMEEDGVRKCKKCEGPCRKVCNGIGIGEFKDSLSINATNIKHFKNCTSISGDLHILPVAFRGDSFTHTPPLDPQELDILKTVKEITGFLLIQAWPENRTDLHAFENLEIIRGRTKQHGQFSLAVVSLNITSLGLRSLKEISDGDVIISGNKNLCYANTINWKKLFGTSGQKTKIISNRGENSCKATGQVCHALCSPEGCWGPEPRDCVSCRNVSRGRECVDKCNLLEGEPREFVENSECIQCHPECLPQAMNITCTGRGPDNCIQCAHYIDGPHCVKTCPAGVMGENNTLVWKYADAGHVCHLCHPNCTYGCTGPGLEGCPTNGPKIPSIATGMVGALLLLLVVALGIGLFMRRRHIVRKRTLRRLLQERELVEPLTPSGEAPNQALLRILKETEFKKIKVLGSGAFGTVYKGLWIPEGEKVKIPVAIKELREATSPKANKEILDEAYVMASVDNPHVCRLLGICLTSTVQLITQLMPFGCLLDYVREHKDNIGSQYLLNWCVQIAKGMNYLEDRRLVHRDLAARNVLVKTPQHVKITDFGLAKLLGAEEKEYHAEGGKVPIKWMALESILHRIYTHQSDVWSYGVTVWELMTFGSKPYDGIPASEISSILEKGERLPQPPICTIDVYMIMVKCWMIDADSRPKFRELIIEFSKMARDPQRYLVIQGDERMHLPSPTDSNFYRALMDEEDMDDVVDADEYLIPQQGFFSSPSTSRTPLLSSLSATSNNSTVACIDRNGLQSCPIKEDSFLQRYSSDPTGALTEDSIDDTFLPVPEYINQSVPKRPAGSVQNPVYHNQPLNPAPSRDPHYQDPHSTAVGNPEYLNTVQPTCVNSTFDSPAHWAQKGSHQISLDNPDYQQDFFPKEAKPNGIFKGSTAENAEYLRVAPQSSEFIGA

Row | Compound | melting point [°C] | IC50 [1] [nM]
1 | O=C(C=CCN1CCN(C(=O)[C@@H]2CCC(=O)O2)CC1)Nc1cc2c(Nc3ccc(F)c(Cl)c3)ncnc2cc1OCC1CC1 [Example 3, (S)-4-[(3-chloro-4-fluorophenyl)amino]-6-[(4-{4-[(5-oxotetrahydrofuran-2-yl)carbonyl]piperazin-1-yl}-1-oxo-2-buten-1-yl)amino]-7-cyclopropylmethoxyquinazoline] | 155 to 157 | –
2 | O=C(C=CCN1CCN2CC(=O)OCC2C1)Nc1cc2c(Nc3ccc(F)c(Cl)c3)ncnc2cc1OCC1CC1 (stereo not drawn) [4(3), 4-[(3-chloro-4-fluorophenyl)amino]-6-{[4-(3-oxoperhydropyrazino[2,1-c][1,4]oxazin-8-yl)-1-oxo-2-buten-1-yl]amino}-7-cyclopropylmethoxyquinazoline] | – | 10

The remaining compounds from weak to strong by IC50 [1], led by results:

Row | melting point [°C] | IC50 [1] [nM] | Compound
3 | – | 3 | O=C(C=CCN1CCN(CCSC2CCOC2=O)CC1)Nc1cc2c(Nc3ccc(F)c(Cl)c3)ncnc2cc1OCC1CC1 (stereo not drawn) [Example 4, 4-[(3-chloro-4-fluorophenyl)amino]-6-{[4-(4-{2-[(2-oxotetrahydrofuran-3-yl)sulfanyl]ethyl}piperazin-1-yl)-1-oxo-2-buten-1-yl]amino}-7-cyclopropylmethoxyquinazoline]
4 | – | 0.6 | O=C(C=CCN1CCN(C2COC(=O)C2)CC1)Nc1cc2c(Nc3ccc(F)c(Cl)c3)ncnc2cc1OCC1CC1 (stereo not drawn) [Example 2, 4-[(3-chloro-4-fluorophenyl)amino]-6-({4-[4-(2-oxotetrahydrofuran-4-yl)piperazin-1-yl]-1-oxo-2-buten-1-yl}amino)-7-cyclopropylmethoxyquinazoline]
5 | 130 to 131 | 0.05 | O=C(C=CCN1CCN(C2CCOC2=O)CC1)Nc1cc2c(Nc3ccc(F)c(Cl)c3)ncnc2cc1OCC1CC1 (stereo not drawn) [Example 1, 4-[(3-chloro-4-fluorophenyl)amino]-6-({4-[4-(2-oxotetrahydrofuran-3-yl)piperazin-1yl]-1-oxo-2-buten-1-yl}amino)-7-cyclopropylmethoxyquinazoline]
